Measured values published in US20240261290A1, “PHARMACEUTICAL COMPOSITION COMPRISING 7-(4-CHLOROBENZYL)-1-(3-HYDROXYPROPYL)-3-METHYL-8-(3-(TRIFLUOROMETHOXY)-PHENOXY)-3,7-DIHYDRO-1H-PURINE-2,6-DIONE” (Boehringer Ingelheim International GmbH, priority 2023, published 2024).

Assays:
[1] = Lipophilicity (logP) of Compound 1; format: physicochemical
[2] = Aqueous solubility of Compound 1; format: physicochemical; settings: under acidic to neutral conditions

logP [1]: 5.2 | aqueous solubility [2]: low aqueous solubility
SMILES: Cn1c(=O)n(CCCO)c(=O)c2c1nc(Oc1cccc(OC(F)(F)F)c1)n2Cc1ccc(Cl)cc1 [Compound 1, 7-(4-chlorobenzyl)-1-(3-hydroxypropyl)-3-methyl-8-(3-(trifluoromethoxy)-phenoxy)-3,7-dihydro-1H-purine-2,6-dione]
